Assays:
ALDH2 = molecular target: T1, ALDH2 (Homo sapiens, UniProt P05091); assay: Purified ALDH2 assay with propanal, NADH fluorescence; format: biochemical; conditions: purified enzyme
T1 construct: histidine-tag (N); made in house; host or cells: bacterial expression (pETite vector, IPTG induction)
T1 sequence (P05091 18-517): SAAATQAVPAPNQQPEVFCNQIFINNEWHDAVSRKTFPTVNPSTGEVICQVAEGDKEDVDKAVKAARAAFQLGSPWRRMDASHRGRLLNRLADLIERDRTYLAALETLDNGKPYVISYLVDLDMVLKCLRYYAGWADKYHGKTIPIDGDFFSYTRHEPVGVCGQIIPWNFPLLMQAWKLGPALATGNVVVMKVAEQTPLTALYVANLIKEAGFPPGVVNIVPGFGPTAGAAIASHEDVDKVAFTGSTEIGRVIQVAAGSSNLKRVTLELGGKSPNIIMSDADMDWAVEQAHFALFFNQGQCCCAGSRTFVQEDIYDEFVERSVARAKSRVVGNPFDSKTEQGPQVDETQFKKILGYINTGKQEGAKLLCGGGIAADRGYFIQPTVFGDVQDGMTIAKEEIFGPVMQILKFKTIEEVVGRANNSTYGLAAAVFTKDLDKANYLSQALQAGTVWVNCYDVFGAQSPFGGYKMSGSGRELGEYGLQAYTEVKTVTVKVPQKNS
From the text: ALDHs were cloned into bacterial expression vector for in vitro enzyme assays and into mammalian expression vectors for cell-based enzyme assays. Human ALDH1A1 cDNA and human ALDH2 cDNA were purchased from OriGene (SC321535) and Open Biosystems (MHS4771-99611182), respectively. and human ALDH1A2 cDNA was cloned from human testis RNA using RT-PCR (Population Division of the Department of Economic and Social Affairs of the United Nations Secretariat. World Population prospects: the 2008 revision. Available at http://www.un.org/esa/population/ (Retrieved Sep. 30, 2011)). For bacterial expression, an open reading frame of ALDH1A1 and ALDH2 were subcloned into the pETite vector (Lucigen) with a 5′ histidine-tag and that of ALDH1A2 into a pET28 vector (Novagen) with a 3′ histidine-tag. Correct frame and sequences were verified through DNA sequencing (UW DNA sequencing facility). ALDHs were induced with 1 mM IPTG and purified using His.Bind resin (Novagen, San Diego, Calif.) and stored in a buffer containing 20 mM Hepes (pH 8), 150 mM KCl and 1 mM EDTA as previously described (Fierce, Y., de Morais Vieira, M., Piantedosi, R., Wyss, A., Blaner, W. S., and Paik, J. (2008) In vitro and in vivo characterization of retinoid synthesis from beta-carotene. Archives of biochemistry and biophysics 472, 126-138). […]
For this, 2 μg purified ALDH2, 20 μM propanal and varying concentrations of inhibitors were incubated at room temperature. Enzyme activity was determined by measuring fluorescence of NADH (Ex, 350 nm/Em, 460 nm) using a Victor3 plate reader (PerkinElmer), and initial velocity was calculated from two consecutive readings over 1 minute.

ALDH1A2 = molecular target: T2, ALDH1A2 (Homo sapiens, UniProt O94788); assay: Inhibitor screening using purified enzymes: ALDH1A2 activity, retinoic acid production by HPLC (5 uM initial screen, then IC50); format: biochemical; set-up: histidine-tag (C); made in house; host or cells: bacterial expression (pET28 vector, IPTG induction); conditions: purified enzyme
T2 sequence (O94788 1-518): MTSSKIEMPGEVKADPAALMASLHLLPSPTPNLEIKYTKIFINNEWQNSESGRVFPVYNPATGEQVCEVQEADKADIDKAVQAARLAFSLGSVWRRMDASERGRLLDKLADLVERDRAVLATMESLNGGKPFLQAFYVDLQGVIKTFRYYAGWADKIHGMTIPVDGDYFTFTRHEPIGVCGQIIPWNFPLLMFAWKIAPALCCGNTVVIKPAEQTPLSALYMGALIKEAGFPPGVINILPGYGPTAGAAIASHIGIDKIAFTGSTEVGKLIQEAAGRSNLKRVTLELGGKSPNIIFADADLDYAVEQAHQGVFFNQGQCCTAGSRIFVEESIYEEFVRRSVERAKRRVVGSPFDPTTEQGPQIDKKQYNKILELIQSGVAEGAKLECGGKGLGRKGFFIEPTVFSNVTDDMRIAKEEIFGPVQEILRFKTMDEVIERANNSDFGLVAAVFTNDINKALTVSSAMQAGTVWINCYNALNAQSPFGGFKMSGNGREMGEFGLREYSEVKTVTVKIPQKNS
From the text: ALDHs were cloned into bacterial expression vector for in vitro enzyme assays and into mammalian expression vectors for cell-based enzyme assays. Human ALDH1A1 cDNA and human ALDH2 cDNA were purchased from OriGene (SC321535) and Open Biosystems (MHS4771-99611182), respectively. and human ALDH1A2 cDNA was cloned from human testis RNA using RT-PCR (Population Division of the Department of Economic and Social Affairs of the United Nations Secretariat. World Population prospects: the 2008 revision. Available at http://www.un.org/esa/population/ (Retrieved Sep. 30, 2011)). For bacterial expression, an open reading frame of ALDH1A1 and ALDH2 were subcloned into the pETite vector (Lucigen) with a 5′ histidine-tag and that of ALDH1A2 into a pET28 vector (Novagen) with a 3′ histidine-tag. Correct frame and sequences were verified through DNA sequencing (UW DNA sequencing facility). ALDHs were induced with 1 mM IPTG and purified using His.Bind resin (Novagen, San Diego, Calif.) and stored in a buffer containing 20 mM Hepes (pH 8), 150 mM KCl and 1 mM EDTA as previously described (Fierce, Y., de Morais Vieira, M., Piantedosi, R., Wyss, A., Blaner, W. S., and Paik, J. (2008) In vitro and in vivo characterization of retinoid synthesis from beta-carotene. Archives of biochemistry and biophysics 472, 126-138).
ALDH1A1 and ALDH1A2 activity was determined as previously reported (Beedle M T, Stevison F, Zhong G, Topping T, Hogarth C, Isoherranen N, Griswold M D. Sources of All-Trans Retinal Oxidation Independent of the Aldehyde Dehydrogenase 1A Isozymes Exist in the Postnatal Testis. Biol Reprod. 2018 Sep. 21. doi: 10.1093/biolre/ioy200). Briefly, purified enzymes were incubated in a buffer containing 10 mM HEPES buffer (pH 8.0), 150 mM potassium chloride and 2 mM EDTA with 2 mM NAD. Retinoic acid production was determined using HPLC as previously reported (Amory J K, Muller C H, Shimshoni A J, Isoherranen N, Paik J, Moreb J S, Amory D W, Evanoff R, Goldstein A S, Griswold M D. Suppression of spermatogenesis by bisdichloroacetyldiamines is mediated by inhibition of testicular retinoic acid biosynthesis. Journal of Andrology 2011; 32(1):111-119). Inhibitors were diluted in DMSO and added to the reactions. […] For initial screening of inhibitors for ALDH1A2, 1 μg ALDH1A2, 5 μM all-trans-retinal and 5 μM inhibitors were incubated for 15 min at 37° C. […] For this purpose, 0.5 μg ALDH1A2 and […] were incubated for 5 minutes at 37° C. with varying concentrations of inhibitors. To determine specificity toward ALDH1A2, the IC50 for […]

IC50 (ALDH2) [µM]	IC50 (ALDH1A2) [µM]	Compound
35.9	0.038	CS(=O)(=O)c1ccc(-c2nn(-c3cccc(F)c3)cc2C(=O)Nc2ccc(C#N)cc2)cc1 [Compound 249, N-(4-Cyanophenyl)-3-[4-(methylsulfonyl)phenyl]-1-(3-fluorophenyl)-1H-pyrazole-4-carboxamide]
146	0.07	O=C(Nc1cccc(F)c1)c1cn(-c2ccccc2)nc1-c1ccc([N+](=O)[O-])cc1 [Compound 106, N-(3-fluorophenyl)-3-(4-nitrophenyl)-1-phenyl-1H-pyrazole-4-carboxamide]
16.9	0.397	O=C(Nc1ccc(O)cc1)c1cn(-c2ccccc2)nc1-c1ccc([N+](=O)[O-])cc1 [Compound 167, N-(4-Hydroxyphenyl)-3-(4-nitrophenyl)-1-phenyl-1H-pyrazole-4-carboxamide]
5.22	0.142	O=C(c1sccc1Cl)N1CCN(c2ccc([N+](=O)[O-])c(N3CCCC3)c2)CC1 [Compound 324, {4-[4-Nitro-3-(pyrrolidin-1-yl)phenyl]piperazin-1-yl}(3-chlorothiophen-2-yl)methanone]
24.6	0.822	O=C(Nc1cccc(C(F)(F)F)c1)c1cn(-c2ccccc2)nc1-c1ccc([N+](=O)[O-])cc1 [Compound 151, 3-(4-Nitrophenyl)-1-phenyl-N-[3-(trifluoromethyl)phenyl]-1H-pyrazole-4-carboxamide]
13	0.17	O=C(Nc1ccccc1C(F)(F)F)c1cn(-c2ccccc2)nc1-c1ccc([N+](=O)[O-])cc1 [Compound 150, 3-(4-Nitrophenyl)-1-phenyl-N-[2-(trifluoromethyl)phenyl]-1H-pyrazole-4-carboxamide]
85.8	0.291	CS(=O)(=O)c1ccc(-c2nn(-c3cccc(F)c3)cc2C(=O)Nc2cccc(C(F)(F)F)c2)cc1 [Compound 250, N-(3-Trifluoromethyphenyl)-3-[4-(methylsulfonyl)phenyl]-1-(3-fluorophenyl)-1H-pyrazole-4-carboxamide]
15.2	0.217	COC(=O)c1cn(-c2ccccc2)nc1-c1ccc([N+](=O)[O-])cc1 [Compound 229, Methyl 3-(4-nitrophenyl)-1-phenyl-1H-pyrazole-4-carboxylate]
313	0.62	COc1cccc(NC(=O)c2cn(-c3ccccc3)nc2-c2ccc([N+](=O)[O-])cc2)c1 [Compound 103, N-(3-Methoxyphenyl)-3-(4-nitrophenyl)-1-phenyl-1H-pyrazole-4-carboxamide]
145	0.01	CS(=O)(=O)c1ccc(-c2nn(-c3ccccc3)cc2C(=O)Nc2cccc(C(F)(F)F)c2)cc1 [Compound 208, 3-(4-(Methylsulfonyl)phenyl)-N-(3-trifluoromethylphenyl)-1-phenyl-1H-pyrazole-4-carboxamide]
62	0.076	CS(=O)(=O)c1ccc(-c2nn(-c3cccc(F)c3)cc2C(=O)Nc2ccccc2O)cc1 [Compound 243, N-(2-Hydroxyphenyl)-3-[4-(methylsulfonyl)phenyl]-1-(3-fluorophenyl)-1H-pyrazole-4-carboxamide]
0.077	0.198	COC(=O)c1ccc(-c2nn(-c3ccccc3)cc2C=O)cc1 [Cmpd 33]
91.7	0.346	CS(=O)(=O)c1ccc(-c2nn(-c3cccc(C#N)c3)cc2C(=O)Nc2cccc(C(F)(F)F)c2)cc1 [Compound 270, 1-(3-Cyanophenyl)-N-(3-trifluoromethylphenyl)-3-[4-(methylsulfonyl)phenyl]-1H-pyrazole-4-carboxamide]
9.6	0.271	CS(=O)(=O)c1ccc(-c2nn(-c3cccc(Cl)c3)cc2C(=O)Nc2cccc(F)c2)cc1 [Compound 239, N-(3-Fluorophenyl)-3-[4-(methylsulfonyl)phenyl]-1-(3-chloropheny)-1H-pyrazole-4-carboxamide]
61.2	0.119	CS(=O)(=O)c1ccc(-c2nn(-c3cccc(F)c3)cc2C(=O)Nc2ccc(OC(F)(F)F)cc2)cc1 [Compound 246, N-(4-Trifluoromethoxyphenyl)-3-[4-(methylsulfonyl)phenyl]-1-(3-fluorophenyl)-1H-pyrazole-4-carboxamide]
40.9		CS(=O)(=O)c1ccc(-c2nn(-c3ccccc3F)cc2C(=O)Nc2ccccc2O)cc1 [Compound 238, N-(2-Hydroxphenyl)-3-[4-(methylsulfonyl)phenyl]-1-(2-fluoropheny)-1H-pyrazole-4-carboxamide]
10.3	0.01	CS(=O)(=O)c1ccc(-c2nn(-c3ccccc3)cc2C(=O)Nc2ccc(F)c(F)c2)cc1 [Compound 207, 3-(4-(Methylsulfonyl)phenyl)-N-(3,4-difluorophenyl)-1-phenyl-1H-pyrazole-4-carboxamide]
95.2	0.779	O=C(Nc1cccc(O)c1)c1cn(-c2ccccc2)nc1-c1ccc([N+](=O)[O-])cc1 [Compound 166, N-(3-Hydroxyphenyl)-3-(4-nitrophenyl)-1-phenyl-1H-pyrazole-4-carboxamide]

Compound	IC50 (ALDH2) [µM]	IC50 (ALDH1A2) [µM]
CC(=O)Oc1ccccc1NC(=O)c1cn(-c2ccccc2)nc1-c1ccc(S(C)(=O)=O)cc1 [Compound 210, N-(2-Acetoxyphenyl)-3-[4-(methylsulfonyl)phenyl]-1-phenyl-1H-pyrazole-4-carboxamide]	112	0.032

From patent publication US11548875B2, “Inhibitor compounds for male contraception” (University of Washington, priority 2018, dated 2023)
